Assay results taken from patent US20250108038A1 (priority 2023, published 2025).
Values joined by “and” are separate entries in the source; they are usually repeats but may differ in a detail not shown here. Equal values may be shown once. Read-outs that look alike come from different tables or passages of the source.

Legend:
in vitro = conditions: beagle, dog, plasma
Method: (§1) Pooled (N≥3) male SD rat, beagle dog and mixed gender human plasma with EDTA-K2 as anticoagulant were purchased from BioIVT (NY, USA) and stored in a −70° C. freezer before use.
(§2) Incubations were conducted in 96-well plate format. The time points defined for this study are 0, 5, 15, 30 and 60 minutes.
(§3) For positive controls, the rat plasma was spiked with enalapril, the dog plasma spiked with bisacodyl and the human plasma was spiked with propantheline. All spiked plasma sample plates were incubated in a water bath at 37° C. with shaking.
(§4) At end of each time point, samples were immediately quenched with three volume of cold quenching solution. All sample plates were mixed thoroughly by shaking for approximately 10 minutes and centrifuged at 3220×g for 15 minutes. Subsequently, 100 μL of supernatant was removed from each well, mixed with 100 μL water in a new 96-well plate and subjected to LC-MS/MS analysis.
(§5) Concentrations of test article, metabolite, and control compounds in the samples were analyzed by LC-MS/MS semi-quantitatively. […] The peak area ratios of analyte/internal standard were used to semi-quantitatively determine the concentrations.
(§6) The peak area ratios (PAR) of analyte/internal standard were used to semi-quantitatively determine the concentration of test article and control compounds, and calculate the percent remaining with the following equation:
(§7) The elimination rate (ke) was calculated from a log linear plot of % remaining versus time. The half-life was calculated using the following equation:

[1] = Stability in beagle dog plasma; conditions: 2.0 μM
Method: as §1, §2, §3, §4, §5, §6, §7

CYP1A2 = biological target: T1, CYP1A2 (Homo sapiens, UniProt P05177); assay: in vitro; conditions: both, microsomes, pH 7.4
T1 sequence (P05177 1-516): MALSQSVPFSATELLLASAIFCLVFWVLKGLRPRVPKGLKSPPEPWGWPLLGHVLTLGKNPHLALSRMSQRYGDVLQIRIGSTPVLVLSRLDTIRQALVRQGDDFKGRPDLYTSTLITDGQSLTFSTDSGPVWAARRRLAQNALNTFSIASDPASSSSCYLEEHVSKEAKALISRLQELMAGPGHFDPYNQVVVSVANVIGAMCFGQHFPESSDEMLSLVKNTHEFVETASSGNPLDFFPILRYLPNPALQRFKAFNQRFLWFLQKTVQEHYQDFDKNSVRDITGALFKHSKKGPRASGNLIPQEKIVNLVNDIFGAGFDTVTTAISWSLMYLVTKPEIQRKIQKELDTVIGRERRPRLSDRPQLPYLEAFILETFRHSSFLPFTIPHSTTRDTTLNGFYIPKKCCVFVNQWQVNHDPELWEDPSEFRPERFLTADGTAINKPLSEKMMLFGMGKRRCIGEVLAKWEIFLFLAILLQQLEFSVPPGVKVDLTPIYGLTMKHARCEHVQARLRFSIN

CYP2D6 = CYP2D6 (Homo sapiens, UniProt P10635); assay: in vitro; conditions: both, pH 7.4
Chain of CYP2D6 (P10635 whole entry): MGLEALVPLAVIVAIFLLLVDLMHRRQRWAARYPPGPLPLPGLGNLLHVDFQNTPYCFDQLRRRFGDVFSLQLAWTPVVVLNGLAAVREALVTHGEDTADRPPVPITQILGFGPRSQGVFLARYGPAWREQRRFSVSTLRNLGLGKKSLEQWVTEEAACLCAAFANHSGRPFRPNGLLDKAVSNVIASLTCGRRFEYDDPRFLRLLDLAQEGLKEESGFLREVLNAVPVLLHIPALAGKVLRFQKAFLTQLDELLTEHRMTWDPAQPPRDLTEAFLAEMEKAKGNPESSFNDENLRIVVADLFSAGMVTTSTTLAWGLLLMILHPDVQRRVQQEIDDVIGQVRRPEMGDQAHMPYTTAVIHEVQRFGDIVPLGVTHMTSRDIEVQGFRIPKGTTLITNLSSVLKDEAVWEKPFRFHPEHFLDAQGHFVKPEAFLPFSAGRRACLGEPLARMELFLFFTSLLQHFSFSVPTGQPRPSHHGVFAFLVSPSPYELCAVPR

MATE1 [2] = biological target: T2, MATE1 (Homo sapiens, UniProt Q96FL8)
T2 sequence (Q96FL8 1-570): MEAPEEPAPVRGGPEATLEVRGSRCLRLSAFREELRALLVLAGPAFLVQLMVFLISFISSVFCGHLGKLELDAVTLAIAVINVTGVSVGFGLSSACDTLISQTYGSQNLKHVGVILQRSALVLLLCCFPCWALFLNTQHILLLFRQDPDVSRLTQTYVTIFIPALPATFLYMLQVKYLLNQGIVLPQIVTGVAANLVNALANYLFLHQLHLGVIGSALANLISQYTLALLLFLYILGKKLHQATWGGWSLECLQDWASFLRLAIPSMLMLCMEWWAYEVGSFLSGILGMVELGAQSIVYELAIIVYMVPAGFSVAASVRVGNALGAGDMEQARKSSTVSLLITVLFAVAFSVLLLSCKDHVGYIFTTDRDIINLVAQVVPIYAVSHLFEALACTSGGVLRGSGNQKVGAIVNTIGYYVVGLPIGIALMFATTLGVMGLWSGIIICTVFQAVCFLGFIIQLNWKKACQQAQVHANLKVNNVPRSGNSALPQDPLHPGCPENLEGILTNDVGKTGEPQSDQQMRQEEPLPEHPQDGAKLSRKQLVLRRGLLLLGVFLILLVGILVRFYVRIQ
Method: (§8) Uptake experiments were performed using HEK293 cells stably expressing the respective uptake transporters.
(§9) Cells were cultured at 37° C. in a humidified atmosphere containing 5% CO2 and were plated onto standard 96-well tissue culture plates.
(§10) Before the experiment, the medium was removed, and the cells were washed twice with 100 μL of pre-warmed (37° C.) assay buffer listed in Table 15. The cells were pre-incubated at 37° C. for 30 minutes in assay buffer containing the test article at appropriate concentrations (Table 16), appropriate solvents for solvent controls and the reference inhibitor for reference inhibitor wells. After the pre-incubation step solutions were removed. Uptake experiments were performed at 37° C. in 50 μL of assay buffer containing the probe substrate and the test article or solvent and controls.
(§11) After the experiment, cells were washed twice with 100 μL of appropriate cold buffer and lysed with 150 μL scintillation cocktail. Radiolabeled probe substrate transport was determined by liquid scintillation counting.
(§12) Uptake of the probe substrate in control cells provided background activity values for all data points.

MATE2-K [3] = biological target: T3, MATE2-K (Homo sapiens, UniProt Q86VL8)
T3 sequence (Q86VL8 1-566 isoform Q86VL8-3): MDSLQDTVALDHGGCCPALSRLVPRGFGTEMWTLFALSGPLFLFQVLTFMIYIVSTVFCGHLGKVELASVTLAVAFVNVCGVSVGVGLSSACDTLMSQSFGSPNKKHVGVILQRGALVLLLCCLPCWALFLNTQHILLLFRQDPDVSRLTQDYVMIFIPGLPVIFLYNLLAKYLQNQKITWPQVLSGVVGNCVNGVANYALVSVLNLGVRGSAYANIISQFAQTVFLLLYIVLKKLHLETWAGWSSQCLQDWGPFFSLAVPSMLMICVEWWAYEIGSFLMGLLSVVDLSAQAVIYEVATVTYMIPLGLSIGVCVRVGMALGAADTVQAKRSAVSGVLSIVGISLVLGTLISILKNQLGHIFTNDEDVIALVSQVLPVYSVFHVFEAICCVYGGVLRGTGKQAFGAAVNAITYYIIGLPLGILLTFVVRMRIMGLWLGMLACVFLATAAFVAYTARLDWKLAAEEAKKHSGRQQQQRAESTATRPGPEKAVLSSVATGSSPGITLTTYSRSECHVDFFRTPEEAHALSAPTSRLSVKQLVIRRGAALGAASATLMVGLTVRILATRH
Method: as §8, §9, §10, §11, §12

MATE1 [4] = biological target: T2, MATE1; assay: in vitro
Method: as §8, §9, §10, §11, §12

MATE2-K [5] = biological target: T3, MATE2-K; assay: in vitro
Method: as §8, §9, §10, §11, §12

CYP2C9 = CYP2C9 (Homo sapiens, UniProt P11712); assay: in vitro; conditions: both, pH 7.4
Chain of CYP2C9 (P11712 whole entry): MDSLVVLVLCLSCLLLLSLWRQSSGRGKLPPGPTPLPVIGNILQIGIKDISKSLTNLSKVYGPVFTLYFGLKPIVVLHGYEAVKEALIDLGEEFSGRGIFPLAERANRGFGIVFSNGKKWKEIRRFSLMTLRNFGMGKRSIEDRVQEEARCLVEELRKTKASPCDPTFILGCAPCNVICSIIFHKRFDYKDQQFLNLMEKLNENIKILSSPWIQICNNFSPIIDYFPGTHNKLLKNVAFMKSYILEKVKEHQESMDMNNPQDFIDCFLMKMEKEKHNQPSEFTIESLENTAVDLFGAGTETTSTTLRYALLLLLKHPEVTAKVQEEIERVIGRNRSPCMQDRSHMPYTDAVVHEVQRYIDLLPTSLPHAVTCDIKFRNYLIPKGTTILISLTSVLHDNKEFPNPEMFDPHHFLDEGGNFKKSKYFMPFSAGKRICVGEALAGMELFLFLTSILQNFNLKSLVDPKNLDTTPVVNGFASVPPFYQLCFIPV

CYP2C19 [6] = biological target: T4, CYP2C19 (Homo sapiens, UniProt P33261); assay: in vitro; conditions: both, pH 7.4
T4 sequence (P33261 whole entry): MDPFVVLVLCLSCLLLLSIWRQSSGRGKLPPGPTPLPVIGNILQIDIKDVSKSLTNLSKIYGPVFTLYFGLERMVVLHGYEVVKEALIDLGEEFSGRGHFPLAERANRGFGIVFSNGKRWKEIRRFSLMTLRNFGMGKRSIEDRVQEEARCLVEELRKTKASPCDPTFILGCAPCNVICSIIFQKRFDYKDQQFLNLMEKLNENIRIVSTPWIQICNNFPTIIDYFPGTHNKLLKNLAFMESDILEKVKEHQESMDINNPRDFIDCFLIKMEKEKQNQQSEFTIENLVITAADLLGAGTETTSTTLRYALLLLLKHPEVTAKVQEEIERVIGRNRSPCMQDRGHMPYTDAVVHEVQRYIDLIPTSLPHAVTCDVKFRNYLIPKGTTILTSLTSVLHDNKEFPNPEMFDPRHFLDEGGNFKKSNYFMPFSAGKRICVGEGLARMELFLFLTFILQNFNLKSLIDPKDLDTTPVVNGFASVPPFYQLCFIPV

CYP2C19 [7] = biological target: T4, CYP2C19; assay: biochemical
CYP2C8 = biological target: T5, CYP2C8 (Homo sapiens, UniProt P10632); assay: in vitro; conditions: both, pH 7.4
T5 sequence (P10632 1-490): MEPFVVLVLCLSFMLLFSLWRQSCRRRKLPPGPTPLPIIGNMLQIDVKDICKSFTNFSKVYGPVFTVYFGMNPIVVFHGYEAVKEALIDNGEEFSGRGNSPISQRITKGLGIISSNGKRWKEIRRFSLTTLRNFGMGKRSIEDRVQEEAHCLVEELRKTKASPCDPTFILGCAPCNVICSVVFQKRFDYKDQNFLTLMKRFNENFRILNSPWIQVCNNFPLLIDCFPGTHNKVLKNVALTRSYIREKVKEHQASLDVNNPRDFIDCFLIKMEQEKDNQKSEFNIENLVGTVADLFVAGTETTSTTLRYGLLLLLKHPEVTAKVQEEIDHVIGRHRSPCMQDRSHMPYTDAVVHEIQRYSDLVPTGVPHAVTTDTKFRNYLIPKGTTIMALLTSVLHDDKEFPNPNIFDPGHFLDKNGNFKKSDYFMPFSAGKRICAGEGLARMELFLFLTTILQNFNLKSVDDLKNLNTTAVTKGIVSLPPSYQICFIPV

Structure (SMILES): CC(=O)Oc1ccc(C(c2ccc(OC(C)=O)cc2)c2ccccn2)cc1 [Bisacodyl, reference compound]
- half-life at 2 μM (in vitro): 3.6 min
- % Remaining ([1]; 0 min): 100%
- Aa/Ai Mean (N = 2) ([1]; 0 min): 1.49
- % Remaining ([1]; 5 min): 45.9%
- Aa/Ai Mean (N = 2) ([1]; 5 min): 0.68
- % Remaining ([1]; 15 min): 8.79%
- Aa/Ai Mean (N = 2) ([1]; 15 min): 0.13
- % Remaining ([1]; 30 min): 0.34%
- Aa/Ai Mean (N = 2) ([1]; 30 min): 0.01
- % Remaining ([1]; 60 min): 0.00%
- Aa/Ai Mean (N = 2) ([1]; 60 min): 0.00

Structure (SMILES): COCCCC/C(=N\OCCN)c1ccc(C(F)(F)F)cc1 [Fluvoxamine]
- inhibition at 50 µM (CYP1A2): 101%

Structure (SMILES): C=C[C@H]1C[N@@]2CC[C@H]1C[C@@H]2[C@@H](O)c1ccnc2ccc(OC)cc12 [Quinidine]
- inhibition at 5 µM (CYP2D6): 96.2%

Structure (SMILES): CCc1nc(N)nc(N)c1-c1ccc(Cl)cc1 [Pyrimethamine]
- inhibition (MATE1 [2]): 100%
- inhibition (MATE1 [2]; 5 µM): 100%
- inhibition (MATE2-K [3]): 101%
- inhibition (MATE2-K [3]; 5 µM): 101% and 102% and 100%
- inhibition at 5 µM (MATE1 [4]): 102%
- inhibition at 5 μM (MATE1 [4]): 101%
- inhibition at 5 µM (MATE2-K [5]): 95%
- inhibition at 5 μM (MATE2-K [5]): 98%

Structure (SMILES): Nc1ccc(S(=O)(=O)Nc2ccnn2-c2ccccc2)cc1 [Sulfaphenazole]
- inhibition at 50 µM (CYP2C9): 98.7%

Structure (SMILES): COc1ccc2[nH]c([S+]([O-])Cc3ncc(C)c(OC)c3C)nc2c1 (stereo not shown) [Omeprazole]
- inhibition at 50 µM (CYP2C19 [6]): 89.9%
- IC50 (CYP2C19 [7]): 7.36 µM

Structure (SMILES): O=c1c(O)c(-c2ccc(O)c(O)c2)oc2cc(O)cc(O)c12 [Quercetin]
- inhibition at 50 µM (CYP2C8): 102%
